In the assay the test system is S.aureus 57 (MSSA). The assay is described as follows: Broth dilution MIC/MBC, clinical MSSA isolate. The following applies: Staphylococcus aureus, clinical MSSA S.aureus 57. In kind it is cell-based. From the text:
[…]. Both MRSA and MSSA strains were derived from various human infections.
[…]. Five methicillin-resistant S. aureus strains were isolated from nose (n = 1), bronchoalveolar lavage (n = 1), sputum (n = 1), wound (n = 1), and blood (n = 1); five methicillin-susceptible S. aureus strains were isolated from throat (n = 1), bronchoalveolar lavage (n = 1), sputum (n = 1), abscess (n = 1), and blood (n = 1).
The identity of S. aureus isolates was confirmed with conventional methods and with Pastorex Staph-Plus latex agglutination kit (Bio-Rad, Marnes-la-Coquette, France) and verified applying the polymerase chain reaction (PCR) of S. aureus-specific region of the thermonuclease gene, nuc. Resistance to methicillin was first verified using cefoxitin disk (30 µg), and then, identified based on the presence of mecA gene. S. aureus ATCC®25923 (methicillin-susceptible) and S. aureus ATCC®43300 (MDR) were applied as the reference strains. Both the reference and clinical strains were stored at −80 °C, in Tryptic Soy Broth (TSB, Becton-Dickinson, Franklin Lakes, NJ, USA) supplemented with 15% glycerol.
A broth dilution method was used to determine minimal inhibitory concentration (MIC) for tested compounds as recommended by Clinical Laboratory Standards Institute (CLSI) guidelines. Investigated compounds were diluted in Mueller Hinton Broth 2 (Sigma-Aldrich Co., St. Louis, MO, USA) in polypropylene 96-well plates and initial inoculum 5 × 10^5 cfu/mL were incubated at 37 °C for 18 h. MIC was taken as the lowest drug concentration at which an observable growth was inhibited. […] The loopful (10 µL) of the tested sample was transferred to Tryptic Soy Agar (TSA, Becton-Dickinson, Franklin Lakes, NJ, USA) and incubated at 37 °C for 48 h. […] Drug Solutions were made fresh on the day of the assay. All experiments were performed in triplicate.
Background: Dilution methods test growth across graded concentrations, often in twofold steps.

Values after ≈ are worked out from the molar mass of the structure shown.

Take `Cc1cc(S(=O)(=O)NC(=O)CCC2CCCCC2)c(SCc2cccc(C(F)(F)F)c2)cc1Cl` [Compound 10, N-[4-Chloro-5-methyl-2-(3-trifluoromethylbenzylthio)benzenesulfonyl]-3-cyclohexylpropanamide]: for the setting “read-out: MBC”, the MBC (usually the smallest concentration meeting the test's criterion for killing) is greater than 128 µg/mL. For the setting “read-out: MIC”, the MIC (usually the lowest concentration found to suppress growth) stood at 4 µg/mL (≈ 7.49 µM).

The values above are taken from paper PMC6981581, “N-(2-Arylmethylthio-4-Chloro-5-Methylbenzenesulfonyl)amide Derivatives as Potential Antimicrobial Agents—Synthesis and Biological Studies” (International Journal of Molecular Sciences, 2019).
